# System: incident cancers in post-myocardial infarction patients with hsCRP ≥2 mg/L
# Assay: CANTOS trial: incident cancers, cancer mortality, canakinumab vs placebo
# Type: in vivo, human
substance,measurement,setting,value
"canakinumab: high-affinity, fully human monoclonal antibody of the IgG1/k to interleukin-1β; INN number 8836","Breast, incidence rate (number)",50 mg SC q 3 months,0.09(7) per 100 person years
same,"Central Nervous System, incidence rate (number)",50 mg SC q 3 months,0.04(3) per 100 person years
same,"Endocrine: Adrenal, incidence rate (number)",50 mg SC q 3 months,0 per 100 person years
same,"Endocrine: Thyroid, incidence rate (number)",50 mg SC q 3 months,0.01(1) per 100 person years
same,"Gastrointenstinal: Appendiceal, incidence rate (number)",50 mg SC q 3 months,0 per 100 person years
same,"Gastrointenstinal: Biliary, incidence rate (number)",50 mg SC q 3 months,0.03(2) per 100 person years
same,"Gastrointenstinal: Colorectal, incidence rate (number)",50 mg SC q 3 months,0.25(20) per 100 person years
same,"Gastrointenstinal: Esophageal, incidence rate (number)",50 mg SC q 3 months,0.08(6) per 100 person years
same,"Gastrointenstinal: Gastric, incidence rate (number)",50 mg SC q 3 months,0.04(3) per 100 person years
same,"Gastrointenstinal: Oral cavity/tongue, incidence rate (number)",50 mg SC q 3 months,0.03(2) per 100 person years
same,"Gastrointenstinal: Pancreatic, incidence rate (number)",50 mg SC q 3 months,0.04(3) per 100 person years
same,"Genitourinary: Bladder, incidence rate (number)",50 mg SC q 3 months,0.10(8) per 100 person years
same,"Genitourinary: Cervical, incidence rate (number)",50 mg SC q 3 months,0 per 100 person years
same,"Genitourinary: Endometrial/Uterine, incidence rate (number)",50 mg SC q 3 months,0.03(2) per 100 person years
same,"Genitourinary: Ovarian, incidence rate (number)",50 mg SC q 3 months,0 per 100 person years
same,"Genitourinary: Prostate, incidence rate (number)",50 mg SC q 3 months,0.19(15) per 100 person years
same,"Genitourinary: Testicular, incidence rate (number)",50 mg SC q 3 months,0 per 100 person years
same,"Hematopoetic: Leukemia, incidence rate (number)",50 mg SC q 3 months,0.01(1) per 100 person years
same,"Hematopoetic: Lymphoma, incidence rate (number)",50 mg SC q 3 months,0.04(3) per 100 person years
same,"Hematopoetic: Multiple myeloma, incidence rate (number)",50 mg SC q 3 months,0 per 100 person years
same,"Kidney, incidence rate (number)",50 mg SC q 3 months,0.13(10) per 100 person years
same,"Liver, incidence rate (number)",50 mg SC q 3 months,0.04(3) per 100 person years
same,"Lung Cancers: Adenocarcinoma or poorly differentiated large cell carcinoma or unspecified, incidence rate (number)",50 mg SC q 3 months,0.33 per 100 person years
same,"Lung Cancers: Pleural cancer, incidence rate (number)",50 mg SC q 3 months,0 per 100 person years
same,"Lung Cancers: Small cell lung cancer, incidence rate (number)",50 mg SC q 3 months,0.01 (1) per 100 person years
same,"Lung Cancers: Squamous cell lung carcinoma, incidence rate (number)",50 mg SC q 3 months,0.01 (1) per 100 person years
same,"Other cancer sites: Other, incidence rate (number)",50 mg SC q 3 months,0.08(6) per 100 person years
same,"Sarcoma / Bone, incidence rate (number)",50 mg SC q 3 months,0.01(1) per 100 person years
same,"Skin: Basal cell carcinoma, incidence rate (number)",50 mg SC q 3 months,0.28(22) per 100 person years
same,"Skin: Melanoma, incidence rate (number)",50 mg SC q 3 months,0.08(6) per 100 person years
same,"Skin: Other, incidence rate (number)",50 mg SC q 3 months,0 per 100 person years
same,"Skin: Squamous cell skin cancer, incidence rate (number)",50 mg SC q 3 months,0.10(8) per 100 person years
same,"Lung Cancers: Adenocarcinoma or poorly differentiated large cell carcinoma or unspecified, incidence rate (number)","50 mg SC q 3 months, listed as Canakinumab",0.33 (26) per 100 person years
same,"Breast, incidence rate (number)",150 mg SC q 3 months,0.05(4) per 100 person years
same,"Central Nervous System, incidence rate (number)",150 mg SC q 3 months,0.05(4) per 100 person years
same,"Endocrine: Adrenal, incidence rate (number)",150 mg SC q 3 months,0.01(1) per 100 person years
same,"Endocrine: Thyroid, incidence rate (number)",150 mg SC q 3 months,0.02(2) per 100 person years
same,"Gastrointenstinal: Appendiceal, incidence rate (number)",150 mg SC q 3 months,0 per 100 person years
same,"Gastrointenstinal: Biliary, incidence rate (number)",150 mg SC q 3 months,0.03(3) per 100 person years
same,"Gastrointenstinal: Colorectal, incidence rate (number)",150 mg SC q 3 months,0.19(16) per 100 person years
same,"Gastrointenstinal: Esophageal, incidence rate (number)",150 mg SC q 3 months,0.03(3) per 100 person years
same,"Gastrointenstinal: Gastric, incidence rate (number)",150 mg SC q 3 months,0.02(2) per 100 person years
same,"Gastrointenstinal: Oral cavity/tongue, incidence rate (number)",150 mg SC q 3 months,0.05(4) per 100 person years
same,"Gastrointenstinal: Pancreatic, incidence rate (number)",150 mg SC q 3 months,0.06(5) per 100 person years
same,"Genitourinary: Bladder, incidence rate (number)",150 mg SC q 3 months,0.08(7) per 100 person years
same,"Genitourinary: Cervical, incidence rate (number)",150 mg SC q 3 months,0.01(1) per 100 person years
same,"Genitourinary: Endometrial/Uterine, incidence rate (number)",150 mg SC q 3 months,0 per 100 person years
same,"Genitourinary: Ovarian, incidence rate (number)",150 mg SC q 3 months,0.01(1) per 100 person years
same,"Genitourinary: Prostate, incidence rate (number)",150 mg SC q 3 months,0.16(14) per 100 person years
same,"Genitourinary: Testicular, incidence rate (number)",150 mg SC q 3 months,0.01(1) per 100 person years
same,"Hematopoetic: Leukemia, incidence rate (number)",150 mg SC q 3 months,0.02(2) per 100 person years
same,"Hematopoetic: Lymphoma, incidence rate (number)",150 mg SC q 3 months,0.05(4) per 100 person years
same,"Hematopoetic: Multiple myeloma, incidence rate (number)",150 mg SC q 3 months,0 per 100 person years
same,"Kidney, incidence rate (number)",150 mg SC q 3 months,0.07(6) per 100 person years
same,"Liver, incidence rate (number)",150 mg SC q 3 months,0.06(5) per 100 person years
same,"Lung Cancers: Adenocarcinoma or poorly differentiated large cell carcinoma or unspecified, incidence rate (number)",150 mg SC q 3 months,0.27 per 100 person years
same,"Lung Cancers: Pleural cancer, incidence rate (number)",150 mg SC q 3 months,0 per 100 person years
same,"Lung Cancers: Small cell lung cancer, incidence rate (number)",150 mg SC q 3 months,0.01 (1) per 100 person years
same,"Lung Cancers: Squamous cell lung carcinoma, incidence rate (number)",150 mg SC q 3 months,0.02 (2) per 100 person years
same,"Other cancer sites: Other, incidence rate (number)",150 mg SC q 3 months,0.06(5) per 100 person years
same,"Sarcoma / Bone, incidence rate (number)",150 mg SC q 3 months,0 per 100 person years
same,"Skin: Basal cell carcinoma, incidence rate (number)",150 mg SC q 3 months,0.29(25) per 100 person years
same,"Skin: Melanoma, incidence rate (number)",150 mg SC q 3 months,0.06(5) per 100 person years
same,"Skin: Other, incidence rate (number)",150 mg SC q 3 months,0.06(5) per 100 person years
same,"Skin: Squamous cell skin cancer, incidence rate (number)",150 mg SC q 3 months,0.15(13) per 100 person years
same,"Lung Cancers: Adenocarcinoma or poorly differentiated large cell carcinoma or unspecified, incidence rate (number)","150 mg SC q 3 months, listed as Canakinumab",0.27 (23) per 100 person years
same,"Breast, incidence rate (number)",300 mg SC q 3 months,0.06(5) per 100 person years
same,"Central Nervous System, incidence rate (number)",300 mg SC q 3 months,0.03(3) per 100 person years
same,"Endocrine: Adrenal, incidence rate (number)",300 mg SC q 3 months,0.01(1) per 100 person years
same,"Endocrine: Thyroid, incidence rate (number)",300 mg SC q 3 months,0.01(1) per 100 person years
same,"Gastrointenstinal: Appendiceal, incidence rate (number)",300 mg SC q 3 months,0.01(1) per 100 person years
same,"Gastrointenstinal: Biliary, incidence rate (number)",300 mg SC q 3 months,0 per 100 person years
same,"Gastrointenstinal: Colorectal, incidence rate (number)",300 mg SC q 3 months,0.21(18) per 100 person years
same,"Gastrointenstinal: Esophageal, incidence rate (number)",300 mg SC q 3 months,0.08(7) per 100 person years
same,"Gastrointenstinal: Gastric, incidence rate (number)",300 mg SC q 3 months,0.06(5) per 100 person years
same,"Gastrointenstinal: Oral cavity/tongue, incidence rate (number)",300 mg SC q 3 months,0.02(2) per 100 person years
same,"Gastrointenstinal: Pancreatic, incidence rate (number)",300 mg SC q 3 months,0.06(5) per 100 person years
same,"Genitourinary: Bladder, incidence rate (number)",300 mg SC q 3 months,0.13(11) per 100 person years
same,"Genitourinary: Cervical, incidence rate (number)",300 mg SC q 3 months,0 per 100 person years
same,"Genitourinary: Endometrial/Uterine, incidence rate (number)",300 mg SC q 3 months,0.03(3) per 100 person years
same,"Genitourinary: Ovarian, incidence rate (number)",300 mg SC q 3 months,0 per 100 person years
same,"Genitourinary: Prostate, incidence rate (number)",300 mg SC q 3 months,0.17(15) per 100 person years
same,"Genitourinary: Testicular, incidence rate (number)",300 mg SC q 3 months,0 per 100 person years
same,"Hematopoetic: Leukemia, incidence rate (number)",300 mg SC q 3 months,0.01(1) per 100 person years
same,"Hematopoetic: Lymphoma, incidence rate (number)",300 mg SC q 3 months,0.07(6) per 100 person years
same,"Hematopoetic: Multiple myeloma, incidence rate (number)",300 mg SC q 3 months,0.02(2) per 100 person years
same,"Kidney, incidence rate (number)",300 mg SC q 3 months,0.07(6) per 100 person years
same,"Liver, incidence rate (number)",300 mg SC q 3 months,0.03(3) per 100 person years
same,"Lung Cancers: Adenocarcinoma or poorly differentiated large cell carcinoma or unspecified, incidence rate (number)",300 mg SC q 3 months,0.12 per 100 person years
same,"Lung Cancers: Pleural cancer, incidence rate (number)",300 mg SC q 3 months,0 per 100 person years
same,"Lung Cancers: Small cell lung cancer, incidence rate (number)",300 mg SC q 3 months,0.01 (1) per 100 person years
same,"Lung Cancers: Squamous cell lung carcinoma, incidence rate (number)",300 mg SC q 3 months,0.03 (3) per 100 person years
same,"Other cancer sites: Other, incidence rate (number)",300 mg SC q 3 months,0.02(2) per 100 person years
same,"Sarcoma / Bone, incidence rate (number)",300 mg SC q 3 months,0.01(1) per 100 person years
same,"Skin: Basal cell carcinoma, incidence rate (number)",300 mg SC q 3 months,0.21(18) per 100 person years
same,"Skin: Melanoma, incidence rate (number)",300 mg SC q 3 months,0.06(5) per 100 person years
same,"Skin: Other, incidence rate (number)",300 mg SC q 3 months,0.02(2) per 100 person years
same,"Skin: Squamous cell skin cancer, incidence rate (number)",300 mg SC q 3 months,0.27(23) per 100 person years
same,"Lung Cancers: Adenocarcinoma or poorly differentiated large cell carcinoma or unspecified, incidence rate (number)","300 mg SC q 3 months, listed as Canakinumab",0.12 (10) per 100 person years
same,total cancer mortality,"300 mg SC, vs placebo",fell by half
same,"Breast, incidence rate (number)",All Doses,0.06(16) per 100 person years
same,"Central Nervous System, incidence rate (number)",All Doses,0.04(10) per 100 person years
same,"Endocrine: Adrenal, incidence rate (number)",All Doses,0.01(2) per 100 person years
same,"Endocrine: Thyroid, incidence rate (number)",All Doses,0.02(4) per 100 person years
same,"Gastrointenstinal: Appendiceal, incidence rate (number)",All Doses,0.00(1) per 100 person years
same,"Gastrointenstinal: Biliary, incidence rate (number)",All Doses,0.02(5) per 100 person years
same,"Gastrointenstinal: Colorectal, incidence rate (number)",All Doses,0.21(54) per 100 person years
same,"Gastrointenstinal: Esophageal, incidence rate (number)",All Doses,0.06(16) per 100 person years
same,"Gastrointenstinal: Gastric, incidence rate (number)",All Doses,0.04(10) per 100 person years
same,"Gastrointenstinal: Oral cavity/tongue, incidence rate (number)",All Doses,0.03(8) per 100 person years
same,"Gastrointenstinal: Pancreatic, incidence rate (number)",All Doses,0.05(13) per 100 person years
same,"Genitourinary: Bladder, incidence rate (number)",All Doses,0.10(26) per 100 person years
same,"Genitourinary: Cervical, incidence rate (number)",All Doses,0.00(1) per 100 person years
same,"Genitourinary: Endometrial/Uterine, incidence rate (number)",All Doses,0.02(5) per 100 person years
same,"Genitourinary: Ovarian, incidence rate (number)",All Doses,0.00(1) per 100 person years
same,"Genitourinary: Prostate, incidence rate (number)",All Doses,0.17(44) per 100 person years
same,"Genitourinary: Testicular, incidence rate (number)",All Doses,0.00(1) per 100 person years
same,"Hematopoetic: Leukemia, incidence rate (number)",All Doses,0.02(4) per 100 person years
same,"Hematopoetic: Lymphoma, incidence rate (number)",All Doses,0.05(13) per 100 person years
same,"Hematopoetic: Multiple myeloma, incidence rate (number)",All Doses,0.01(2) per 100 person years
same,"Kidney, incidence rate (number)",All Doses,0.09(22) per 100 person years
same,"Liver, incidence rate (number)",All Doses,0.04(11) per 100 person years
same,"Lung Cancers: Adenocarcinoma or poorly differentiated large cell carcinoma or unspecified, incidence rate (number)",All Doses,0.23 (59) per 100 person years
same,"Lung Cancers: Pleural cancer, incidence rate (number)",All Doses,0 per 100 person years
same,"Lung Cancers: Small cell lung cancer, incidence rate (number)",All Doses,0.01 (3) per 100 person years
same,"Lung Cancers: Squamous cell lung carcinoma, incidence rate (number)",All Doses,0.02 (6) per 100 person years
same,"Other cancer sites: Other, incidence rate (number)",All Doses,0.05(13) per 100 person years
same,"Sarcoma / Bone, incidence rate (number)",All Doses,0.01(2) per 100 person years
same,"Skin: Basal cell carcinoma, incidence rate (number)",All Doses,0.26(65) per 100 person years
same,"Skin: Melanoma, incidence rate (number)",All Doses,0.06(16) per 100 person years
same,"Skin: Other, incidence rate (number)",All Doses,0.03(7) per 100 person years
same,"Skin: Squamous cell skin cancer, incidence rate (number)",All Doses,0.17(44) per 100 person years
same,share of all cancers that were lung cancers,among those assigned to canakinumab (placebo 26.0%),16%
same,share of cancer deaths that were lung cancers,among those assigned to canakinumab (placebo 47%),34%
